The target of data set [1] is T1, ATP-binding cassette sub-family C member 2 (Mus musculus, UniProt Q8VI47). Description: TP_TRANSPORTER: Northern blot in vivo, liver of CF I mouse. In kind it is functional, organism-based.
For data set [2], the target named is T1, ATP-binding cassette sub-family C member 2. Description: TP_TRANSPORTER: Western in vivo, liver of CF I mouse. Type of data set: functional, organism-based.

SMILES strings stand for the structures.

T1 sequence (Q8VI47 whole entry): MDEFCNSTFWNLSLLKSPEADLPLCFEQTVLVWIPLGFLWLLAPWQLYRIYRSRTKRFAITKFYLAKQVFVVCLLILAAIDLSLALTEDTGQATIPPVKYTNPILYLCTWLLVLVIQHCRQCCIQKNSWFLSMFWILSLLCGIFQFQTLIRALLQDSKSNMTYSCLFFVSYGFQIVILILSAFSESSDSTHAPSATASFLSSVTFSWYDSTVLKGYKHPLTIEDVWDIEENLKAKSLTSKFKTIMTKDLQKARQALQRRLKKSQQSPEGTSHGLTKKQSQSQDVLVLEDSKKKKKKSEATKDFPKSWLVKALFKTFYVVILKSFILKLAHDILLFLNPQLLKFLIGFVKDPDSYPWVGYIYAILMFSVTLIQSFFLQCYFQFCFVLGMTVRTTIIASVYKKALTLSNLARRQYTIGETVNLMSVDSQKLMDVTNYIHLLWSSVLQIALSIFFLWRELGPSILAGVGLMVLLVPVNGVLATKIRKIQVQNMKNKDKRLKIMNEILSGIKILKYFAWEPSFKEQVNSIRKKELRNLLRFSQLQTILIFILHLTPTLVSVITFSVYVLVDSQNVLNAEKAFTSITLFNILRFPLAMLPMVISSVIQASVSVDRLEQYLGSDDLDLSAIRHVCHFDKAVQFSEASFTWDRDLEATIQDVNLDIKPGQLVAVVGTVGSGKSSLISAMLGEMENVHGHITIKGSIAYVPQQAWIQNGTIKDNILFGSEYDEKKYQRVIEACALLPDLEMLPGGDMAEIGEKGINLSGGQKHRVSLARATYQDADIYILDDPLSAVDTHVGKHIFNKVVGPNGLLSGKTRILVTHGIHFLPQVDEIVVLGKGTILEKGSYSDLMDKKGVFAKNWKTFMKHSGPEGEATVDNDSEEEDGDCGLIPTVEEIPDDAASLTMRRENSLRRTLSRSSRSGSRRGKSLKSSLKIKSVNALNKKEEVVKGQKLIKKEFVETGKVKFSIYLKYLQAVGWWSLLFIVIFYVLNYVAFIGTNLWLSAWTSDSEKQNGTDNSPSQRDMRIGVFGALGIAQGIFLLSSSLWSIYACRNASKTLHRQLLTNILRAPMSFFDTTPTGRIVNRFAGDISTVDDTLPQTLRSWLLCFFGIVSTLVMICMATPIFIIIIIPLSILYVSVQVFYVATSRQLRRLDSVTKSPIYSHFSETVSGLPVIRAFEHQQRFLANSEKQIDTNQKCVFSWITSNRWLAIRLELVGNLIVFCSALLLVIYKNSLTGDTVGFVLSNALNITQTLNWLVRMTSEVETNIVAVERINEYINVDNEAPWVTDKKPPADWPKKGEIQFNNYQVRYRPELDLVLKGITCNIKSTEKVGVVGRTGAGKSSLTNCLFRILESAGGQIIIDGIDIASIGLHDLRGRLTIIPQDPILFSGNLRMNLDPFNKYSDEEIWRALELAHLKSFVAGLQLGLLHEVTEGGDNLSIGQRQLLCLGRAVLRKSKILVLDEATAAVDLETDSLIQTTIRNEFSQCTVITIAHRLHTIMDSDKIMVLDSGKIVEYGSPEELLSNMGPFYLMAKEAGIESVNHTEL

With `O=C(O)COc1cc(Cl)c(Cl)cc1Cl` [2,4,5-TRICHLOROPHENOXYACETIC ACID], the Activity entry in data set [1] and in data set [2] was “inducer [+]” throughout.
